Results on 4 compounds are retold here after patent publication US7217810B2, “High level production of arbutin in green plants and microbes” (E. I. du Pont de Nemours and Company, priority 2003, dated 2007).

In data set [1] the target is T1, UGT72B1 (Arabidopsis thaliana, UniProt Q9M156).
T1 construct: host or cells: E. coli (per the cited work)
T1 sequence (Q9M156 1-480): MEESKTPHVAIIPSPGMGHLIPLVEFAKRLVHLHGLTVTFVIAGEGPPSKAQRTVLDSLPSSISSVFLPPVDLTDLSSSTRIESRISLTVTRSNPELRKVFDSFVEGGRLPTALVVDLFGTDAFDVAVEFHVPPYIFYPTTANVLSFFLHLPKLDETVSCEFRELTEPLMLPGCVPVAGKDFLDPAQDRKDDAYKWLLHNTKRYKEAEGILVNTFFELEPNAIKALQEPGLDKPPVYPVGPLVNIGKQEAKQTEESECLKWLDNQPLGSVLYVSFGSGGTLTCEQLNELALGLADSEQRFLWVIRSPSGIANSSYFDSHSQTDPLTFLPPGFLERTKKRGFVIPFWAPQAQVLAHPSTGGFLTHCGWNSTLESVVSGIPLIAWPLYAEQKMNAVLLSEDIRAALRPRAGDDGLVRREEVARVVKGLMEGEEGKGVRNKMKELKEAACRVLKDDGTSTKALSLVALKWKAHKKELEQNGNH
Particulars: highest of the benzoic acid derivatives analyzed; cited from earlier work.

The target of data set [2] is T2, arbutin synthase (Rauvolfia serpentina, UniProt Q9AR73). Particulars: 50° C., converted from cited Vmax using 51,793.01 Da. How it is done:
(§1) This turnover number was calculated using a molecular weight of the UGT72B1 enzyme of 53,015.33 Da calculated with the PEPIDESORT software package of the GCG.

For data set [3], the target named is T2, arbutin synthase. Particulars: 50° C., 1 mM hydroquinone; cited from earlier work.
The target in data set [4] is UGT72B1 (Arabidopsis thaliana, UniProt Q9M156, E284K/I310V/T253S). The procedure:
The enzyme was diluted to a final concentration of 0.115 ng/μL using 50 mM Tris HCl (pH 7.5), 1 mM MgCl2 and 2 mM DTT. […] Arbutin formation was quantitated by HPLC analysis as follows: 10 μL of analyte were separated on a Nova-Pak® C18 column (60 Å pore size, […]) using a gradient from 2% acetonitrile, 1.5% phosphoric acid (solvent A) to 48% acetonitrile, 1.5% phosphoric acid (solvent B). The following solvent gradient is applied: 0–5 min 100% solvent A; 5–20 min linear gradient of 0–100% solvent B; 21–25 min 100% solvent A. Arbutin was detected at 221 nm absorbance wavelength and quantitated using calibration curves generated with a commercially available standard of arbutin.
The data was fitted to the Michaelis-Menten equation. […] In this plot, an estimate of the Km is provided as the slope of the line representing the linear regression curve through the points and the Vmax by the intercept of the regression curve with the y axis.
as §1

The subject of a further data set is Oc1ccc(O)cc1. Nature of the data set: purified protein, by the assay type. To be noted: pH 7.5; 37.0 °C.
A further data set concerns O=C(O)c1ccc(O)cc1. The experiment in a line: purified protein, by the assay type. To be noted: other: pHBA 0.2 to 400 μM, fitted to Michaelis-Menten equation; 25.0 °C.

Take `O=C(O)c1cc(O)ccc1O` [2,5-dihydroxybenzoic acid]: on UGT72B1 [1], the specific activity is reported as 11.72 pkat/μg protein.

In turn, `Oc1ccc(O)cc1` [hydroquinone, 1,4-dihydroxybenzene] yielded a turnover number at arbutin synthase [2] of 1.4 s⁻¹. Moreover, the Vmax on arbutin synthase [3] is listed as 26.32 pkat/μg. Besides, at UGT72B1 [4], the “apparent Km” value is about 0.3 µM. Further, the “hydroquinone concentration giving significant substrate inhibition” value on UGT72B1 [4] (Michaelis-Menten plot, FIG. 5) is listed as “greater than 100 μM”. The “Vmax with hydroquinone relative to Vmax with benzoic acid substrates” value at UGT72B1 [4] (compared with Lim et al. values) is about 68 fold. Further, at UGT72B1 [4] (hydroquinone as substrate, 20 mM UDPG, 37° C., Hofstee plot), the “apparent Vmax” value was about 796 pmol/sec/1 g. Besides, at UGT72B1 [4] (hydroquinone as substrate, 37° C.), the “turnover number (Kcat)” value came out at 42 s⁻¹.

In the case of “UGT72B1 (Arabidopsis thaliana; E284K/I310V/T253S)”, the Km with Oc1ccc(O)cc1 is 0.3 µM.

On to “pHBA 1-hydroxylase (Lodderomyces parapsilosis CDC317)”, for which, in the data set with O=C(O)c1ccc(O)cc1, the Km amounted to 0.31 µM and the Vmax came to 6.4 µmol/min/mg.
